Assay results as given in patent US10689367B2, “Triazole pyridyl compounds as agonists of the APJ receptor” (AMGEN INC., priority 2016, dated 2020).

Each compound was assayed against human APJ receptor (Homo sapiens (Human), UniProt P35414) (assay: [35S]GTPγS binding assay on membranes from CHO cells stably expressing human APJ receptor). Settings: membranes of CHO cells stably expressing human APJ receptor, read-out: Activity hAPJ SPA EC50 IP.
Sequence of human APJ receptor (P35414 whole entry): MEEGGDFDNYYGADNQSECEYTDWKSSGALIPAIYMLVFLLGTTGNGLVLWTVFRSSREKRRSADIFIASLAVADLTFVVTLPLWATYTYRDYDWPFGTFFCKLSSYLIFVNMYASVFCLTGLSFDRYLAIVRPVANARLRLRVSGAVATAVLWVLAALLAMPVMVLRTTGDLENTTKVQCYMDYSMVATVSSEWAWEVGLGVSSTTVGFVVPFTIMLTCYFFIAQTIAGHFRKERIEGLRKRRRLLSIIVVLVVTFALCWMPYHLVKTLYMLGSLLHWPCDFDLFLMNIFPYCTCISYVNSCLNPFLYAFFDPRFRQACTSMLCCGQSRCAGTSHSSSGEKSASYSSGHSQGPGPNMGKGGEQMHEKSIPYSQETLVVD
Type: biochemical
Description: The human APJ receptor was cloned by polymerase chain reaction and the gene encoding the receptor was subcloned in pFLAG-CMV™-3 expression vector (Sigma, Saint Louis, Mo. USA) in-house at Amgen. A GTPγS binding assay was performed on membranes prepared from CHO cells stably expressing human APJ receptor. The optimum experimental conditions for the concentrations of GDP, MgCl2, and NaCl in the assay buffer were initially determined. […] Incubation was at RT for 90 min and the microplate was read using a ViewLux™ ultra HTS Microplate Imager (PerkinElmer, Inc.). All the results presented are means of several independent experiments and analyzed by non-linear regression methods using the commercially available program Prism (GraphPad, San Diego, Calif.) providing the EC50 values detailed in Table 27.
`COc1cccc(-c2nnc(NS(=O)(=O)[C@@H](C)[C@H](OC)c3ncc(Cl)cn3)n2[C@@H](C)c2c(C)noc2C)n1` (racemic) [Example 310.0, (1R,2S)-1-(5-chloropyrimidin-2-yl)-N-(4-((R)-1-(3,5-dimethylisoxazol-4-yl)ethyl)-5-(6-methoxypyridin-2-yl)-4H-1,2,4-triazol-3-yl)-1-methoxypropane-2-sulfonamide or (1R,2S)-1-(5-chloropyrimidin-2-yl)-N-(4-((S)-1-(3,5-dimethylisoxazol-4-yl)ethyl)-5-(6-methoxypyridin-2-yl)-4H-1,2,4-triazol-3-yl)-1-methoxypropane-2-sulfonamide] gave an EC50 of 7.4 nM. In the case of `COc1cccc(-c2nnc(NS(=O)(=O)[C@@H](C)[C@H](OC)c3ncc(Cl)cn3)n2C[C@@H]2CCCOC2)n1` (racemic) [Example 311.0, (1R,2S)-1-(5-chloropyrimidin-2-yl)-1-methoxy-N-(5-(6-methoxypyridin-2-yl)-4-(((R)-tetrahydro-2H-pyran-3-yl)methyl)-4H-1,2,4-triazol-3-yl)propane-2-sulfonamide or (1R,2S)-1-(5-chloropyrimidin-2-yl)-1-methoxy-N-(5-(6-methoxypyridin-2-yl)-4-(((S)-tetrahydro-2H-pyran-3-yl)methyl)-4H-1,2,4-triazol-3-yl)propane-2-sulfonamide], the EC50 is reported as 33 nM. `COc1cccc(-c2nnc(NS(=O)(=O)[C@@H](C)[C@H](OC)c3ncc(Cl)cn3)n2C[C@@H]2CCCOC2)n1` (racemic) [Example 312.0, (1R,2S)-1-(5-chloropyrimidin-2-yl)-1-methoxy-N-(5-(6-methoxypyridin-2-yl)-4-(((R)-tetrahydro-2H-pyran-3-yl)methyl)-4H-1,2,4-triazol-3-yl)propane-2-sulfonamide or (1R,2S)-1-(5-chloropyrimidin-2-yl)-1-methoxy-N-(5-(6-methoxypyridin-2-yl)-4-(((S)-tetrahydro-2H-pyran-3-yl)methyl)-4H-1,2,4-triazol-3-yl)propane-2-sulfonamide] gave an EC50 of 13 nM. Work on `COc1cccc(-c2nnc(NS(=O)(=O)[C@@H](C)[C@H](C)c3ncc(Cl)cn3)n2[C@@H](C)c2c(C)noc2C)n1` (racemic) [Example 313.0, (2S,3R)-3-(5-chloropyrimidin-2-yl)-N-(4-((R)-1-(3,5-dimethylisoxazol-4-yl)ethyl)-5-(6-methoxypyridin-2-yl)-4H-1,2,4-triazol-3-yl)butane-2-sulfonamide or (2S,3R)-3-(5-chloropyrimidin-2-yl)-N-(4-((S)-1-(3,5-dimethylisoxazol-4-yl)ethyl)-5-(6-methoxypyridin-2-yl)-4H-1,2,4-triazol-3-yl)butane-2-sulfonamide] yielded an EC50 of 21 nM. `COc1cccc(-c2nnc(NS(=O)(=O)[C@@H](C)[C@H](C)c3ncc(Cl)cn3)n2[C@@H](C)c2c(C)noc2C)n1` (racemic) [Example 314.0, (2S,3R)-3-(5-chloropyrimidin-2-yl)-N-(4-((R)-1-(3,5-dimethylisoxazol-4-yl)ethyl)-5-(6-methoxypyridin-2-yl)-4H-1,2,4-triazol-3-yl)butane-2-sulfonamide or (2S,3R)-3-(5-chloropyrimidin-2-yl)-N-(4-((S)-1-(3,5-dimethylisoxazol-4-yl)ethyl)-5-(6-methoxypyridin-2-yl)-4H-1,2,4-triazol-3-yl)butane-2-sulfonamide] was tested, and the EC50 was 33 nM. `COc1cccc(-c2nnc(NS(=O)(=O)[C@@H](C)[C@@H](OC(C)C)c3ncc(C)cn3)n2[C@@H](C)c2c(C)noc2C)n1` (racemic) [Example 315.0] gave an EC50 of 57 nM. `COc1cccc(-c2nnc(NS(=O)(=O)[C@@H](C)[C@@H](OC(C)C)c3ncc(C)cn3)n2[C@@H](C)c2c(C)noc2C)n1` (racemic) [Example 316.0, (1S,2S)-N-(4-((R)-1-(3,5-dimethylisoxazol-4-yl)ethyl)-5-(6-methoxypyridin-2-yl)-4H-1,2,4-triazol-3-yl)-1-isopropoxy-1-(5-methylpyrimidin-2-yl)propane-2-sulfonamide or (1S,2S)-N-(4-((S)-1-(3,5-dimethylisoxazol-4-yl)ethyl)-5-(6-methoxypyridin-2-yl)-4H-1,2,4-triazol-3-yl)-1-isopropoxy-1-(5-methylpyrimidin-2-yl)propane-2-sulfonamide] was tested, and the EC50 was 21 nM. In the case of `COc1cccc(-c2nnc(NS(=O)(=O)[C@@H](C)[C@H](OC)c3ncc(Cl)cn3)n2[C@H](C)[C@@H]2CCCCO2)n1` (racemic) [Example 319.0], the EC50 is reported as 0.44 nM. For `COC[C@@H](C)n1c(NS(=O)(=O)[C@@H](C)[C@H](C)c2ncc(Cl)cn2)nnc1-c1cccnc1` (single isomer, unassigned) [Example 52.0], the EC50 was 16 nM. For `COC[C@@H](C)n1c(NS(=O)(=O)[C@@H](C)[C@H](C)c2ncc(Cl)cn2)nnc1-c1cccnc1` (single isomer, unassigned) [Example 53.0], the EC50 was 30 nM. `CC[C@@H](C)n1c(NS(=O)(=O)[C@@H](C)[C@H](OC)c2ncc(Cl)cn2)nnc1-c1cccc(OC)n1` (single isomer, unassigned) [Example 54.0] was tested, and the EC50 was 0.5 nM. Compound `CC[C@@H](C)n1c(NS(=O)(=O)[C@@H](C)[C@H](OC)c2ncc(Cl)cn2)nnc1-c1cccc(OC)n1` (single isomer, unassigned) [Example 55.0] has an EC50 of 0.4 nM. In the case of `COc1cccc(-c2nnc(NS(=O)(=O)[C@@H](C)[C@H](OC)c3ncc(Cl)cn3)n2[C@@H]2CC23CC3)n1` (single isomer, unassigned) [Example 90.0], the EC50 is reported as 6.2 nM. Compound `COc1cccc(-c2nnc(NS(=O)(=O)[C@@H](C)[C@H](OC)c3ncc(Cl)cn3)n2[C@@H]2CC23CC3)n1` (single isomer, unassigned) [Example 91.0] has an EC50 of 38 nM. `COc1cccc(-c2nnc(NS(=O)(=O)[C@@H](C)[C@H](OC)c3ncc(Cl)cn3)n2[C@@H]2CCC23CCC3)n1` (single isomer, unassigned) [Example 92.0] showed an EC50 of 1.2 nM. `COc1cccc(-c2nnc(NS(=O)(=O)[C@@H](C)[C@H](OC)c3ncc(Cl)cn3)n2[C@@H]2CCC23CCC3)n1` (single isomer, unassigned) [Example 93.0] was tested, and the EC50 was 2.3 nM. With `COc1cccc(-c2nnc(NS(=O)(=O)[C@@H](C)[C@H](OC)c3ncc(Cl)cn3)n2CC[S@+](C)[O-])n1` (single isomer, unassigned) [Example 94.0] the EC50 was 1000 nM. Compound `COc1cccc(-c2nnc(NS(=O)(=O)[C@@H](C)[C@H](OC)c3ncc(Cl)cn3)n2CC[S@+](C)[O-])n1` (single isomer, unassigned) [Example 95.0] has an EC50 of 26 nM. Compound `COc1cnc([C@@H](OC)[C@H](C)S(=O)(=O)Nc2nnc(-c3cccc(OC)n3)n2[C@H]2CC23CC3)cn1` (single isomer, unassigned) [Example 159.0, (1R,2S)-1-methoxy-1-(5-methoxypyrazin-2-yl)-N-(5-(6-methoxypyridin-2-yl)-4-((S)-spiro[2.2]pentan-1-yl)-4H-1,2,4-triazol-3-yl)propane-2-sulfonamide or (1R,2S)-1-methoxy-1-(5-methoxypyrazin-2-yl)-N-(5-(6-methoxypyridin-2-yl)-4-((R)-spiro[2.2]pentan-1-yl)-4H-1,2,4-triazol-3-yl)propane-2-sulfonamide] has an EC50 of 550 nM. Work on `COc1cnc([C@@H](OC)[C@H](C)S(=O)(=O)Nc2nnc(-c3cccc(OC)n3)n2[C@H]2CC23CC3)cn1` (single isomer, unassigned) [Example 160.0, (1R,2S)-1-methoxy-1-(5-methoxypyrazin-2-yl)-N-(5-(6-methoxypyridin-2-yl)-4-((S)-spiro[2.2]pentan-1-yl)-4H-1,2,4-triazol-3-yl)propane-2-sulfonamide or (1R,2S)-1-methoxy-1-(5-methoxypyrazin-2-yl)-N-(5-(6-methoxypyridin-2-yl)-4-((R)-spiro[2.2]pentan-1-yl)-4H-1,2,4-triazol-3-y)propane-2-sulfonamide] yielded an EC50 of 90 nM. `COc1cccc(-c2nnc(NS(=O)(=O)[C@@H](C)[C@H](OC)c3ncc(Cl)cn3)n2[C@@H]2CC[C@H]2OC)n1` (single isomer, unassigned) [Example 161.0, (1R,2S)-1-(5-Chloropyrimidin-2-yl)-1-methoxy-N-(4-((1R,2R)-2-methoxycyclobutyl)-5-(6-methoxypyridin-2-yl)-4H-1,2,4-triazol-3-yl)propane-2-sulfonamide or (1R,2S)-1-(5-chloropyrimidin-2-yl)-1-methoxy-N-(4-((1S,2S)-2-methoxycyclobutyl)-5-(6-methoxypyridin-2-yl)-4H-1,2,4-triazol-3-yl)propane-2-sulfonamide] gave an EC50 of 2.2 nM. `COc1cccc(-c2nnc(NS(=O)(=O)[C@@H](C)[C@H](OC)c3ncc(Cl)cn3)n2[C@@H]2CC[C@H]2OC)n1` (single isomer, unassigned) [Example 162.0, (1R,2S)-1-(5-Chloropyrimidin-2-yl)-1-methoxy-N-(4-((1R,2R)-2-methoxycyclobutyl)-5-(6-methoxypyridin-2-yl)-4H-1,2,4-triazol-3-yl)propane-2-sulfonamide or (1R,2S)-1-(5-chloropyrimidin-2-yl)-1-methoxy-N-(4-((1S,2S)-2-methoxycyclobutyl)-5-(6-methoxypyridin-2-yl)-4H-1,2,4-triazol-3-yl)propane-2-sulfonamide] was tested, and the EC50 was 2.8 nM. For `COc1cccc(-c2nnc(NS(=O)(=O)[C@@H](C)[C@H](OC)c3ncc(Cl)cn3)n2[C@@H](C)c2ccno2)n1` (single isomer, unassigned) [Example 212.0, (1R,2S)-1-(5-chloro-2-pyrimidinyl)-1-methoxy-N-(5-(6-methoxy-2-pyridinyl)-4-((1S)-1-(1,2-oxazol-5-yl)ethyl)-4H-1,2,4-triazol-3-yl)-2-propanesulfonamide or (1R,2S)-1-(5-chloro-2-pyrimidinyl)-1-methoxy-N-(5-(6-methoxy-2-pyridinyl)-4-((1R)-1-(1,2-oxazol-5-yl)ethyl)-4H-1,2,4-triazol-3-yl)-2-propanesulfonamide], the EC50 was 0.85 nM.
